“Also recorded” adds a separate entry of the source.
What was measured:
[1] = tested on: medial forebrain bundle (mFB); experiment: Unilateral 6-OHDA injection into the medial forebrain bundle; turning bias and gene expression; format: in vivo, mouse; conditions: for Shh transcription in the vMB: wt and heterozygous GDNF mutant mice
SVZ proliferation = tested on: SVZ proliferation; parameters: reduction in SVZ proliferation overall (PCNA) / reduction in proliferation in the C cell compartment (PCNA): concentration or dose not given beside the values; conditions: cited from earlier work; for reduction in SVZ proliferation overall (PCNA) / reduction in proliferation in the C cell compartment (PCNA): systemic MPTP or unilateral 6-OHDA into the nigro-striatal pathway
[2] = tested on: Shh-nLZ C/C; Dat-Cre mutant mice; experiment: Gait dynamics on treadmill (DigiGait) after acute L-Dopa or THP in mice with Shh ablation from DA neurons; format: in vivo, mouse; conditions: for increased absolute paw angle / reduced brake time / Brake-Stride ratio: 12 month old mutant animals; for reduced brake time / Brake-Stride ratio: THP 3 mg/kg IP, 30 minutes prior
Source text: Given the involvement of the basal ganglia in the production of gait patterns, gait dynamics by ventral plane videography of mice walking on a translucent treadmill was investigated (Digigait system, Mouse specifics, Inc.), from which comparative temporal, spatial and force indices of gait were derived (Hampton et al., Physiol Behav. 2004 Sep. 15; 82(2-3):381-9; Amende et al., J Neuroeng Rehabil. 2005 Jul. 25; 2:20) of experimental and control animals from 3 to 16 months.
Either drug or vehicle control 30 minutes prior to the analysis of gait dynamics was injected in 12 month old animals. […] (FIG. 39D). […] (FIG. 39B). […] (FIG. 40C).
Gait dynamics by ventral plane videography of mice walking on a translucent treadmill (Digigait system, Mouse specifics, Inc.) were investigated, from which comparative temporal, spatial and force indices of gait were derived (Hampton et al., 2010) of Shh-nLZ^C/C; Dat-Cre—and control animals from 3 to 16 months of age (Table 1). Since altered posture can confound comparative gait analysis based on absolute measures, further analysis of locomotion on the tread mill was focused on gait length variability and relative indices of gait dynamics (relative time allotted to Swing, Brake, Propel and Stance phases) and foot angle. In Shh-nLZ^C/C; Dat-Cre mutants, gait length coefficient of variability was 30% increased at 10 months of age (FIG. 48C).
Many of the locomotion disturbances observed in Shh-nLZ^C/C; Dat-Cre were reminiscent of the functional hall marks of Parkinson's spectrum diseases which are characterized by a general impoverishment of locomotion, reduced fluidity of movement, difficulties in initiating and terminating locomotion, and increased stride length variability (Hausdorff et. al, 1998). Whether dopamine substitution by L-Dopa and the muscarinic antagonist trihexiphenidyl (THP), drugs of proven efficacy in the management of symptoms of PD related diseases, will modify acutely the locomotion deficits of Shh-nLZ^C/C; Dat-Cre mice, was tested.
Spontaneous motor activity was measured in an open field arena using automatic tracking at 6 Hz by an EthoVision 3.1 system (Noldus Information Technology, Leesburg, Va.). Derivation of acceleration and deceleration profiles and indices for turning bias and locomotion complexity is described below. Analysis of gait parameters by forced locomotion was performed by ventral plane videography on a translucent tread mill as described (Digigait, Inc.; Hampton et al., 2010).

[3] = tested on: Shh-nLZ C/C; Dat-Cre mutant mice; experiment: Kinematic analysis of spontaneous locomotion (open field) after L-Dopa or THP; format: in vivo, mouse; conditions: phase III mutant animals
Method: In particular, Bradykinesia is observed in PD. Bradykinesia is the slowed ability to start and continue movements, and impaired ability to adjust the body's position. […] There were no significant differences in the maximal speed that control and mutant mice can travel at (FIG. 40E). The relative time each animals spends at different speeds during acceleration and deceleration in individual locomotion bouts was analyzed. The numbers of “surges”, that are the reversals from acceleration to deceleration and back within a single locomotion bout, were quantitated. The “speed bin” analysis and quantitation of surges type is schematized in FIG. 40F.
Mesostriatal computations take part in the sequencing of locomotor activity and in the termination of ongoing actions (Jin and Costa, 2010; Ding et al., 2010). These processes can be partially assessed by analysis of the kinematic complexity of individual bouts of locomotion in freely ambulating mice (Benjamini et al. 2011; see also Other Results and Discussion). Quantifying the number of alternations from acceleration to deceleration and back in individual bouts of locomotion of similar duration and overall amplitude (FIG. 63G; see also Other Results and Discussion), a 100% increase in locomotive complexity of Shh-nLZ^C/C; Dat-Cre mutants in phase II but a 40% decrease in complexity in phase III compared to control littermates was observed (FIG. 48F). How much time animals spend traveling at different velocities during individual bouts of locomotion of similar length and amplitude was quantified next (see Other Results and Discussion). In phase II mice spend most time locomoting at initial and at top speeds with no discernable differences between Shh-nLZ; Dat-Cre mutants and control littermates (FIG. 64A-B). In phase III, however, Shh-nLZ^C/C; Dat-Cre animals spend 50% more time at low velocities and 80% less time at submaximal speed levels before reaching maximal velocity (FIG. 48K and FIG. 64C). Shh-nLZ^C/C; Dat-Cre animals also spend more time at sub-maximal speed levels after the animal reached peak velocities in a given bout compared to controls (FIG. 64D). […]
Spontaneous motor activity was measured in an open field arena using automatic tracking at 6 Hz by an EthoVision 3.1 system (Noldus Information Technology, Leesburg, Va.). […]
The open field arena was a polycarbonate cage 30×60×25 cm placed in a sound proof chamber. Locomotion of each mouse was recorded and tracked automatically for 10 minutes after habituation. Motor activity was measured as total distance traveled and turning bias was calculated as the net turning angle divided by distance (degrees/cm). Turning bias was calculated by subtracting the sum of ipsi- to contra-lateral movements and is independent of displacement (Spink et al., 2001).

[4] = tested on: Th expressing dopaminergic neurons in the substantia nigra pars compacta; experiment: MPTP paradigm with and without cyclopamine; stereological quantification of Th+ cells
MPTP-lesioned mice = conditions: oral administration; cited from earlier work
ALS patients = conditions: cited from earlier work
[5] = target: T1, GDNF family receptor (GFR)α1 (Mus musculus, UniProt P97785); conditions: Neuro-2A cells; cited from earlier work
T1 construct: host or cells: Neuro-2A cells
T1 sequence (P97785 25-430): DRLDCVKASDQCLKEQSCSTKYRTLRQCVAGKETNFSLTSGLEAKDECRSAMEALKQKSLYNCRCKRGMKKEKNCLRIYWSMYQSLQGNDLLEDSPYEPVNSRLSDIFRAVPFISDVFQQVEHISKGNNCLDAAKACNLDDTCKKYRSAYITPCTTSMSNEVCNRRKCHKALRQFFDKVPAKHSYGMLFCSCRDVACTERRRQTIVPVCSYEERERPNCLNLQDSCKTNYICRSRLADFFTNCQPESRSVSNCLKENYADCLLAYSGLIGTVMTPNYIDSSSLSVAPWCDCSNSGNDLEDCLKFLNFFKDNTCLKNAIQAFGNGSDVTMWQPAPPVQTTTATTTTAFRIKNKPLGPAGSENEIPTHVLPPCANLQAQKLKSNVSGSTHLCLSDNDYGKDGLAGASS

Shh pathway = experiment: Cyclopamine injection into soleus/calf muscle; GDNF and CNTF expression by qtPCR; format: in vivo, mouse; conditions: for dose dependence of neurotrophic factor up-regulation: soleus of endstage G93A SOD animals, 0.5, 1, or 2 μg
[6] = unilateral striatal deafferentation (Winner et al. 2006)
[7] = single systemic dose 1 hour prior to brain harvest
[8] = unilateral injection into the soleus of 125 day old G93A SOD transgenic animals

NCCc1cc(O)c(O)cc1O [6-OHDA, 6-hydroxy-dopamine]
GDNF and ChAT transcription in the striatum [1]: ipsi-lateral up-regulation of GDNF and ChAT transcription in the striatum
expression of Th in the vMB [1]: not affected
turning bias [1]: contra lateral turning bias
Shh transcription in the vMB [1]: up-regulation of Shh transcription in the ipsilateral ventral midbrain
Shh transcription in the vMB ([1]; listed as 6 OH-DA): ipsi-lateral up-regulation of Shh transcription in the vMB
GDNF transcription in the striatum ([1]; wt animals): No up regulation of GDNF transcription was detected
reduction in SVZ proliferation overall (PCNA) (SVZ proliferation): 40%
reduction in proliferation in the C cell compartment (PCNA) (SVZ proliferation): 50%
increase in the production of newly born Pax6+, TH+ periglomerular DA neurons in the olfactory bulb ipsilateral to the lesion (SVZ proliferation; [6]): threefold
reduction in proliferation within the SVZ (SVZ proliferation; [6]): 40%

N[C@@H](Cc1ccc(O)c(O)c1)C(=O)O [L-Dopa, Levodopa]
increased absolute paw angle [2]: normalized the alterations in paw angles
reduced brake time / Brake-Stride ratio ([2]; L-Dopa 20 mg/kg SC): did not correct the reduction in brake time
reduced brake time / Brake-Stride ratio ([2]; L-Dopa 20 mg/kg SC, listed as L-DOPA): not L-DOPA
increased absolute paw angle ([2]; listed as L-DOPA): normalized by L-DOPA
Brake-Stride ratios ([2]; experimental and control animals, L-Dopa 20 mg/kg SC): reduced Brake-Stride ratios in both experimental and control animals
deficits in the initiation of acceleration and deceleration (time at low speeds) [3]: partially normalized; also recorded: normalize the deficit during locomotion initiation; also recorded: ameliorated the deficits in the initiation of acceleration and deceleration; also recorded: ameliorate the deficits at low speeds
time spent locomoting at high / sub-maximal speeds [3]: Neither drug effected the time spend locomoting at sub-maximal speeds; also recorded: not those observed at higher speeds; also recorded: neither drug normalized the time; also recorded: do not normalize the differences at high locomotion speeds

CN1CC=C(c2ccccc2)CC1 [MPTP, 1-methyl-4-phenyl-1,2,3,6-tetrahydropyridine]
reduction in the numbers of Th+ cells compared to vehicle controls ([4]; MPTP 30 mg/kg/day for 4 days, day 33, n=5): 39%
reduction in SVZ proliferation overall (PCNA) (SVZ proliferation): 40%
reduction in proliferation in the C cell compartment (PCNA) (SVZ proliferation): 50%

C[C@H]1CC[C@@]2(OC1)O[C@H]1C[C@H]3[C@@H]4CC[C@@H]5C[C@@H](O)CC[C@]5(C)[C@H]4CC[C@]3(C)[C@H]1[C@@H]2C [PYM50028]
loss of dopaminergic neurons from the substantia nigra (MPTP-lesioned mice): attenuated the loss of dopaminergic neurons from the substantia nigra
striatal GDNF (MPTP-lesioned mice): significant elevation of striatal GDNF

Nc1nc2ccc(OC(F)(F)F)cc2s1 [Riluzole]
measures of function (ALS patients): has not been shown to have significant effect on measures of function

CCCN(CCC)CCc1cccc2c1CC(=O)N2 [Ropinirole]
mitotic activity of the SVZ (PCNA+ cells) on the lesioned side (SVZ proliferation; [7]): restores the mitotic activity of the SVZ
proliferative index on the unlesioned side (SVZ proliferation; [7]): increases the proliferative index on the unlesioned side

OC(CCN1CCCCC1)(c1ccccc1)C1CCCCC1 (centres unmarked) [THP, Trihexyphenidyl]
increased absolute paw angle [2]: not by THP
reduced brake time / Brake-Stride ratio ([2]; L-Dopa 20 mg/kg SC): normalized by THP; also recorded: normalized Brake Stride ratios to control levels; also recorded: normalized Brake-Stride ratios to control levels
deficits in the initiation of acceleration and deceleration (time at low speeds) [3]: partially normalized; also recorded: normalize the deficit during locomotion initiation; also recorded: ameliorated the deficits in the initiation of acceleration and deceleration; also recorded: ameliorate the deficits at low speeds
time spent locomoting at high / sub-maximal speeds [3]: Neither drug effected the time spend locomoting at sub-maximal speeds; also recorded: not those observed at higher speeds; also recorded: neither drug normalized the time; also recorded: do not normalize the differences at high locomotion speeds

CCN(CC)CCCC(C)Nc1cc(/C=C/c2ccccc2Cl)nc2cc(Cl)ccc12 (centres unmarked) [XIB4035]
neurotrophic effects [5]: mimics the neurotrophic effects of GDNF

CC1=C2C[C@H]3[C@@H](CC=C4C[C@@H](O)CC[C@@]43C)[C@@H]2CC[C@]12O[C@@H]1C[C@H](C)CN[C@H]1[C@H]2C [cyclopamine]
up regulation of GDNF expression in the muscle (Shh pathway; injection into calf muscles of control animals): 20 fold
effect on GDNF expression in adult muscles (Shh pathway; injection into limb muscle of wild type (wt) and G93A SOD1 mice): up regulation of GDNF expression
up-regulation of CNTF (Shh pathway; injection into the calf muscles of end stage G93A SOD mice): 20 fold
maximal up regulation of GDNF, fold change in gene expression over control side (Shh pathway; right soleus of 125 day old G93A SOD transgenic animals, 1 mg of Cyclopamine, 30 h post injection): 27 fold
maximal upregulation of CNTF, fold change in gene expression over control side (Shh pathway; right soleus of 125 day old G93A SOD transgenic animals, 2 mg of cyclopamine, 30 h post injection): 20 fold
dose dependence of neurotrophic factor up-regulation (Shh pathway): dose dependent up-regulation of neurotrophic factor expression
dose dependence of neurotrophic factor up-regulation (Shh pathway; listed as Cyclopamine): dose dependent up-regulation of GDNF and CNTF
increase in CNTF expression over the saline injected contra lateral control soleus (Shh pathway; [8]): 8 fold
increase in GDNF expression over the saline injected contra lateral control soleus (Shh pathway; [8]): 12 fold
reduction in Th+ cells in the ventral midbrain compared to control animals ([4]; MPTP plus cyclopamine 50 mg/kg/day by osmotic micropump, n=1): 21%
effect on MPTP induced neurodegeneration ([4]; MPTP plus cyclopamine 50 mg/kg/day, n=1): statistically significant reduction in neurodegeneration
